Assay results published in ChEMBL document CHEMBL4665762, “Conosiligins A-D, Ring-Rearranged Tremulane Sesquiterpenoids from Conocybe siliginea” (J Nat Prod, 2020).

Experiment: Inhibition of Con A-induced BALB/c mouse T cell proliferation after 48 hrs by [3H]-thymidine incorporation assay
Format: functional, tissue-based

Compound	IC50
C[C@@]12CO[C@]3(C1)c1coc(=O)cc1O[C@H](CO)[C@H]3C2	6.6 µM
C[C@@H]1C(=O)C2=C(COC2=O)[C@@H]2C[C@@](C)(CO)C[C@H]12	12.3 µM
